Reference: US10669287B2, “Curcumin-boron complex and pharmaceutical containing same” (JAPAN SCIENCE AND TECHNOLOGY AGENCY, priority 2016, dated 2020)

Experiments:
PC 12 cells [1] = assay type: cell-based
Description: Rat pheochromocytoma PC 12 cells were suspended with DMEM containing 5% horse serum and 10% fetal bovine serum, seeded in a poly-D-lysine-coated 96-well plate at a concentration of 10,000 cells per well, and incubated in a 5% carbon dioxide atmosphere at 37° C. for 3 days. After the solvent was removed, the cells were washed with 150 μL of serum-free DMEM, and DMEM (75 μL) containing 0.1% horse serum was added thereto. Thereafter, the 96-well plate was incubated in a 5% carbon dioxide atmosphere at 37° C. for 1 day for use in oxygenation reaction. In oxygenation reaction, the compound E (100 μM dimethyl sulfoxide solution) was added to a phosphate buffer saline containing Aβ (aggregated in advance for 3 hours, 40 μM) and 25 μL of the above cell solution (final concentration of Aβ: 10 μM, final concentration of compound E: 1 μM). The mixture was irradiated with an LED (wavelength: 780 nm) at a distance of approximately 5 cm at 37° C. for 5 minutes. The cells were incubated in a 5% carbon dioxide atmosphere at 37° C. for 48 hours. The cell viability was measured by using the Cell Count Reagent SF (NACALAI TESQUE, INC., Kyoto, Japan) with WST-8 (2-(2-methoxy-4-nitrophenyl)-3-(4-nitrophenyl)-5-(2,4-disulfophenyl)-2H-tetrazolium).
b: LC50 (dark) indicates the toxicity of a compound itself, and LC50 (light) indicates the phototoxicity of a compound. The PC 12 cells were placed in dark or subjected to photocatalytic treatment under light irradiation (wavelength: 660 nm), and incubated at 37° C. for 5 minutes, and then in a 5% carbon dioxide atmosphere at 37° C. for 48 hours, for which the cell viability was analyzed (n=5, mean±SEM).
b: The PC 12 cells were treated together with a photocatalyst (1 μM) at 37° C. for 5 minutes in dark or under light irradiation (wavelength: 780 nm), and thereafter the cell viability was analyzed (n=3, mean±SEM).

PC 12 cells [2] = assay: Action on cells through selective oxygenation of Aβ1-42, WST-8 cell viability, Test Example 3; assay type: cell-based, rat; conditions: Aβ 10 μM, compound E 1 or 3 μM, 48 hours
Description: A phosphate buffer saline (pH 7.4) containing Aβ (40 μM) was incubated at 37° C. for 3 hours. Subsequently, the compound E was added thereto (4 or 12 μM). A culture medium for rat adrenal medulla-derived pheochromocytoma PC 12 cells (purchased from RIKEN, Japan) seeded on a poly-D-lysine-coated 96-well plate was replaced with 75 μL of a Dulbecco's modified Eagle's medium containing 0.1% horse serum, and the culture was incubated in a 5% CO2 atmosphere at 37° C. for 1 day, and 25 μL of the phosphate buffer saline (pH 7.4) containing Aβ and the compound E was then added thereto (final volume: 100 μL, final concentration of Aβ: 10 μM, final concentration of compound E: 1 or 3 μM). […] Finally, the Cell Count Reagent SF (10 μL: purchased from NACALAI TESQUE, INC.) containing WST-8 was added, and the culture was incubated in a 5% CO2 atmosphere at 37° C. for 3 hours, and thereafter the cell viability was determined from the absorbance at 450 nm (reference wavelength: 655 nm).
From the results shown in FIG. 4, an attempt was made to examine whether the toxicity of Aβ1-42 can be reduced through oxygenation of the Aβ1-42 in the presence of cells. […] The cell viability was determined through measurement of the absorption by WST-8 at 450 nm by using a plate reader.

Arctic Aβ1-42 = assay: Oxygenation reaction in mouse brain extract, Test Example 6; assay type: biochemical; conditions: mouse brain lysate, light 780 nm
Description: The brain excised from an eight-month-old App knock-in (App^NL-C-F/NL-C-F) mouse (Alzheimer's model mouse) was separated into the cerebral cortex, the hippocampus, and the residual brain tissues. The cerebral cortex and the hippocampus were homogenized together in a phosphate buffer saline, and the suspension was stored at −80° C. […] At an arbitrary point of time, an arbitrary aliquot of the reaction mixture was diluted with formic acid to a final concentration of 70%, concentrated, and redissolved in a 6 M aqueous solution of urea.

O=C(O)CCCCCN1CCCc2cc(/C=C/C3=[O+][B-](F)(C(F)(F)C(F)(F)F)OC(/C=C/c4cc5c6c(c4)CCCN6CCC5)=C3Br)ccc21 (stereo not drawn) [Compound E]
CC50 (PC 12 cells [1]): > 10 µM
cell viability with Aβ1-42 and compound E (PC 12 cells [2]; under LED irradiation 660 nm, 10 mW, 5 minutes): the cell viability was significantly improved
cell viability with Aβ1-42 and compound E (PC 12 cells [2]; without light irradiation): significant cell death
decrease of peak intensity (conversion) of Arctic Aβ1-42 (Arctic Aβ1-42; 30 minutes): 43%
decrease of peak intensity (conversion) of Arctic Aβ1-42 (Arctic Aβ1-42; 60 minutes): 60%
decrease of peak intensity (conversion) of Arctic Aβ1-42 (Arctic Aβ1-42; 150 minutes): 83%
